Assay [1] relates to Bacillus subtilis JCM2499. The assay can be described thus: MIC by broth microdilution assay. In kind it is cell-based. The settings on record: median of three experiments. On the procedure:
(§1) Antimicrobial activity was assessed by determining the MIC by broth dilution assay according to our previous reports[21],[35],[36] as per the Clinical and Laboratory Standards Institute[37]. Briefly, serial dilutions of compound 5, compound 7, and positive controls were prepared in cation-adjusted Mueller-Hinton Broth (MHB, Difco, Franklin Lakes, NJ, USA), 100 µl of which was dispensed into each well of a round-bottomed 96-well plate. The final concentrations in the well ranged from 128 µg/ml to 0.0625 µg/ml. Bacteria were grown at 37 °C overnight on either Luria Bertani (tryptone 10 g/l, yeast extract 5 g/l, NaCl 10 g/l) or Tryptic Soy Broth (TSB, Difco) agar plates or sheep blood agar plates (Eiken Chemical Co. Ltd., Tokyo, Japan). Bacterial inoculum was prepared by direct suspension of the colonies in 0.9% saline, and adjusted to obtain a turbidity equivalent to a 0.5 McFarland standard using a spectrophotometer UV-1280 (Shimadzu Corp., Kyoto, Japan). The suspension was then diluted 1:20 in cation-adjusted MHB (Difco), and 10 µl of it was inoculated into each well of previously prepared 96-well plates containing compounds to obtain approximately 5 × 10^4 colony forming units/well and incubated at 37 °C for 20 h. […] Vancomycin (Wako Pure Chemicals) or norfloxacin (Sigma Aldrich, St Louis, MO, USA) were used as positive controls. Each plate contained a growth control well and a vehicle control well. The MIC was determined as the minimum concentration that inhibited the growth of the bacteria.

The test system of assay [2] is Vancomycin- resistant E. faecalis EF5. The assay can be described thus: MIC by broth microdilution assay. In kind it is cell-based. To be noted: Enterococcus faecalis, median of three experiments. The method, then:
as §1

The test system of the next assay is Smith ATCC13709. The assay can be described thus: MIC by broth microdilution assay. It counts as cell-based. The settings on record: Staphylococcus aureus, ATCC 13709 / MSSA, median of three experiments. The method, then: as §1
(In general: In broth dilution the organism is exposed to a series of concentrations in liquid medium.)

Assay [3] deals with USA300 FPR3757 (clinical isolate). Description: MIC by broth microdilution assay. It counts as cell-based. The settings on record: Staphylococcus aureus, MRSA, median of three experiments. The method, then:
as §1

In assay [4] the test system is Staphylococcus haemolyticus JCM2416. Description: MIC by broth microdilution assay. In kind it is cell-based. To be noted: median of three experiments. On the procedure: as §1
The subject of another assay is Staphylococcus simulans. The assay can be described thus: MIC by broth microdilution assay. It counts as cell-based. The settings on record: median of three experiments. On the procedure:
as §1

The test system of assay [5] is Streptococcus sanguinis JCM5708. Description: MIC by broth microdilution assay. It counts as cell-based. To be noted: MHB with 2.5% lysed horse blood, 24 h, median of three experiments. On the procedure: as §1
A further assay has as its system Newman. Description: MIC by broth microdilution assay. It counts as cell-based. To be noted: Staphylococcus aureus, MSSA, median of three experiments. On the procedure:
as §1

The next assay concerns NCTC8325. The assay can be described thus: MIC by broth microdilution assay. It counts as cell-based. The settings on record: Staphylococcus aureus, MSSA / NCTC 8325, median of three experiments. The method, then:
as §1

For a further assay, the system named is Escherichia coli W3110. The assay can be described thus: MIC by broth microdilution assay. In kind it is cell-based. To be noted: median of three experiments. On the procedure:
as §1

Assay [6] has as its system Staphylococcus pseudintermedius JCM17571. The assay can be described thus: MIC by broth microdilution assay. In kind it is cell-based. The settings on record: median of three experiments. On the procedure: as §1
In assay [7] the test system is Pseudomonas aeruginosa PAO1. Description: MIC by broth microdilution assay. It counts as cell-based. The settings on record: median of three experiments. The method, then: as §1
Another assay concerns Bacillus cereus JCM20037. The assay can be described thus: MIC by broth microdilution assay. It counts as cell-based. To be noted: median of three experiments. On the procedure: as §1
The test system of the next assay is MSSA1 (clinical isolate). The assay can be described thus: MIC by broth microdilution assay. The settings on record: Staphylococcus aureus, MSSA, median of three experiments. In kind it is cell-based. The method, then: as §1
Assay [8] deals with Listeria monocytogenes 10403S. The assay can be described thus: MIC by broth microdilution assay. The settings on record: median of three experiments. In kind it is cell-based. On the procedure: as §1
Assay [9] deals with Enterococcus faecalis EF1. Description: MIC by broth microdilution assay. In kind it is cell-based. The settings on record: median of three experiments. On the procedure:
as §1

In a further assay the test system is S. aureus MSSA1. The assay can be described thus: Silkworm systemic infection model, therapeutic activity (ED50). It counts as in vivo, Staphylococcus aureus. The source says:
We synthesized 50 compounds (Fig. 2, Supplementary Table 1) using the Steglich esterification scheme[31] in the presence of a […], 1-ethyl-3-(3-dimethylaminopropyl)-carbodiimide hydrochloride (Fig. 1b). Antimicrobial activities of the compounds were examined by determining the MIC against S. aureus MRSA4 in vitro; therapeutic activities were examined using a systemic infection model of silkworms infected with S. aureus MSSA1.
A total of 108,373 compounds from the chemical library of the Drug Discovery Initiative at the University of Tokyo were screened for antibacterial activity against S. aureus strain MRSA4 as previously reported. Those compounds that inhibited the growth of MRSA4 at 100 µM were further evaluated for their therapeutic effects in silkworms infected with S. aureus strain MSSA1 according to previously reported studies[17],[21].

Where [10] appears, read: Staphylococcus aureus, silkworms infected with S. aureus MSSA1 (Fig. 2), read-out: ED50.

Converted amounts (≈) assume the structure as drawn. Read-outs that look alike come from different tables or passages of the source. Bounds are passed on as bounds.

The values below come from paper PMC5785531, “Pharmacokinetic parameters explain the therapeutic activity of antimicrobial agents in a silkworm infection model” (Scientific Reports, 2018).

By MIC is commonly meant the lowest concentration that inhibits growth of the organism. Low values mean inhibition by little substance, high ones a need for much substance.

`O=C(OCc1cc(Cl)cc(Cl)c1)c1ccc([N+](=O)[O-])s1` [compound 5]: the MIC is 1 µg/mL (≈ 3.01 µM) in assay [1]; more than 128 µg/mL in [2]; 0.5 µg/mL (≈ 1.51 µM) against Smith ATCC13709; 1 µg/mL (≈ 3.01 µM) in [3]; 0.25 µg/mL (≈ 0.753 µM) in assay [4]; 0.25 µg/mL (≈ 0.753 µM) with Staphylococcus simulans. In addition, the minimal inhibitory concentration (MIC) in assay [5] is more than 128 µg/mL; in the assay on Newman it was 0.5 µg/mL (≈ 1.51 µM); in the assay with NCTC8325 it was 0.5 µg/mL (≈ 1.51 µM); against Escherichia coli W3110, more than 128 µg/mL; in assay [6] it was 0.125 µg/mL (≈ 0.376 µM); in assay [7], more than 128 µg/mL. Moreover, the minimal inhibitory concentration (MIC) with Bacillus cereus JCM20037 is 1 µg/mL (≈ 3.01 µM); in the assay on MSSA1 (clinical isolate) it was 0.5 µg/mL (≈ 1.51 µM); in [8], more than 128 µg/mL; in [9], more than 128 µg/mL. The ED50 in the assay on S. aureus MSSA1 (S. aureus-infected silkworms) amounted to 22 µg/g; with S. aureus MSSA1 (setting [10]) it was 22 mg/kg.
Turning to `O=C(OCc1ccccc1)c1ccc([N+](=O)[O-])s1` [compound 7], the MIC in [1] was 1 µg/mL (≈ 3.8 µM); in assay [2], more than 128 µg/mL; in the assay with Smith ATCC13709 it was 0.5 µg/mL (≈ 1.9 µM); in assay [3] it was 1 µg/mL (≈ 3.8 µM); in assay [4] it was 0.25 µg/mL (≈ 0.95 µM); in the assay with Staphylococcus simulans, 0.5 µg/mL (≈ 1.9 µM). Besides, the MIC was more than 128 µg/mL in assay [5]; 1 µg/mL (≈ 3.8 µM) in the assay with Newman; 1 µg/mL (≈ 3.8 µM) in the assay with NCTC8325; more than 128 µg/mL against Escherichia coli W3110; 0.5 µg/mL (≈ 1.9 µM) in assay [6]; more than 128 µg/mL in [7]. Besides, the minimal inhibitory concentration (MIC) with Bacillus cereus JCM20037 was 1 µg/mL (≈ 3.8 µM); against MSSA1 (clinical isolate), 1 µg/mL (≈ 3.8 µM); in [8], more than 128 µg/mL; in assay [9], more than 128 µg/mL. Also, the ED50 was more than 170 µg/g in the assay on S. aureus MSSA1 (S. aureus-infected silkworms) and more than 170 mg/kg in the assay on S. aureus MSSA1 (setting [10]).
